Results reported in patent US20090227619A1, “Harmine derivatives, intermediates used in their preparations, preparation processes and use therefo” (priority 2003, published 2009).
Like-named read-outs stand apart in the source and are kept apart here.

Legend:
Lovo = experiment: In vitro cytotoxicity, IC50 by MTT method, Lovo; assay type: cell-based
Procedure: (§1) Culture medium powder RPMI1640 was dissolved in a proper amount of tri-distilled water according to the instruction of the product. […] It was the basic culture solution. The complete culture solution was added with FBS having a final concentration of 10%, 100 U/ml penicillin and 100 µg/ml streptomycin. The solution was fully stirred by a magnetic blender, and the pH of the solution was adjusted to 6.8-7.0. The volume was kept constant. After being filtered and disinfected, the solution was kept into several containers which were sealed and stored at 4° C.
(§2) The cells were placed in a culture dish followed by the addition of complete culture liquid RPMI1640 and then cultured in a incubator comprising 5% CO2 at 37° C. In the exponential growth phase, the cells grew vigorously. If the culture liquid became yellow, the liquid should be replaced instantly.
(§3) The cells, at a concentration of 10^5/ml, were inoculated at a 96-pore culture plate. In each pore, 100 μl cells were inoculated. The cells were placed in a CO2 incubator until the cells were in the logarithmic growth phase. The samples to be tested were added according to the preset concentration gradient. For each gradient, the test was conducted at least three times. An equivalent amount of solvent for dissolving the samples was added in the control group. After 48 h of culture, each pore was added 20 μl MTT (5 mg/ml). The cells were cultured at 37° C. for 4 h. After the supernatant was carefully removed, 100 μl DMSO was added in each pore. The plate was agitated for about 10 minutes such that the precipitates were dissolved. After that, OD value was identified with a Microplate Reader at the wavelength of 490 nm. The survival rate of the cells at various concentrations was calculated according to the following formula:
(§4) Survival rate %=average OD value of the sample group/average OD value of the control group×100%
(§5) Plots of log survival rate of the cells vs. concentration of the medicament were constructed, and the IC50 value of each sample was calculated according to graphing methods.

BGC-823 = experiment: In vitro cytotoxicity, IC50 by MTT method, BGC-823; assay type: cell-based
Procedure: as §1, §2, §3, §4, §5

PLA-801 = experiment: In vitro cytotoxicity, IC50 by MTT method, PLA-801; assay type: cell-based
Procedure: as §1, §2, §3, §4, §5

HepG2 = experiment: In vitro cytotoxicity, IC50 by MTT method, HepG2; assay type: cell-based, human
Procedure: as §1, §2, §3, §4, §5

Hela = experiment: In vitro cytotoxicity, IC50 by MTT method, Hela; assay type: cell-based
Procedure: as §1, §2, §3, §4, §5

Bel-7402 = experiment: In vitro cytotoxicity, IC50 by MTT method, Bel-7402; assay type: cell-based
Procedure: as §1, §2, §3, §4, §5

NIH3T3 = experiment: In vitro cytotoxicity, IC50 by MTT method, NIH3T3; assay type: cell-based
Procedure: as §1, §2, §3, §4, §5

Lewis lung cancer = conditions: Lewis lung cancer;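 note: mice implanted subcutaneously in the axilla with Lewis lung tumor cells, treated starting the following day, killed roughly three weeks after implantation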
S180 sarcoma = conditions: S180 sarcoma; for Body weight of the animals, beginning, First time / Body weight of the animals, end, First time / Inhibition rate, First time / Weight of the tumor X ± SD, First time: ip × 10qd
Source text: There was one group of 8 to 10 mice C57BL/6 and Kunming mice for the anti-tumor tests and two groups of mice for negative control.
(3) Sources of tumors: Lewis lung cancer cells and S180 sarcoma in mice, which were sub-cultured and maintained by Pharmacological Center of Shanghai Pharmaceutical Industrial Research Institute.
All samples were weighed and added a small amount of Tween-80 to facilitate dissolution during the experiment, and then 0.5% CMC-Na solution was gradually added to achieve the desired concentration. The volume for experiment was 0.5 ml/20 g mouse.
The medicaments were intraperitoneally administered once a day continuously for 10 days.
For the negative control group, a vehicle of the same volume was intraperitoneally administered once a day continuously for 10 days. For the positive control group, CTX was administered in the dosage of 30 mg/kg once a day continuously for 7 days.
In vivo anti-tumor subcutaneous vaccination in the axilla was employed. Wildly grown tumor source was taken under sterile conditions to form a cell suspension of about 1×10^7 ml by homogenization method. For a corresponding mouse host, the suspension was injected in the axilla in an amount of 0.2 ml/mouse. The next day, the medicaments were administered according to the design of the tests. About three weeks later, all the groups of animals were executed. The tumors were taken from the animals and weighed. The inhibition rate of tumors was calculated according to the following formula:
T: average tumor weight of treated group; C: average tumor weight of negative control group.

[1] = Lovo cell strain, read-out: IC50 Lovo
[2] = BGC823 cell strain, read-out: IC50 BGC823
[3] = PLA-801 cell strain, read-out: IC50 PLA-801
[4] = HepG2 cell strain, read-out: IC50 HepG2
[5] = Hela cell strain, read-out: IC50 Hela
[6] = Bel7402 cell strain, read-out: IC50 Bel7402
[7] = NIH3T3 cell strain, read-out: IC50 NIH3T3
[8] = Homo sapiens, Lovo, MTT, read-out: IC50
[9] = Homo sapiens, BGC-823, BGC823, MTT, read-out: IC50
[10] = Homo sapiens, HepG2, MTT, read-out: IC50
[11] = Homo sapiens, Hela, MTT, read-out: IC50
[12] = Homo sapiens, Bel-7402, BeI7402, MTT, read-out: IC50
[13] = Mus musculus, NIH3T3, MTT, read-out: IC50
[14] = Dosage 50, ip × 10qd, first time
[15] = Dosage 100, ip × 10qd, first time

2,9-dibenzyl-β-carbolinium bromate [Compound 89]
IC50 (Lovo; [1]): 30 µM
IC50 (BGC-823; [2]): 60 µM
IC50 (PLA-801; [3]): 100 µM
IC50 (HepG2; [4]): 30 µM
IC50 (Hela; [5]): 20 µM
IC50 (Bel-7402; [6]): 70 µM
IC50 (NIH3T3; [7]): 30 µM

2,9-diethyl-β-carbolinium bromate [Compound 88]
IC50 (Lovo; [1]): 2150 µM
IC50 (BGC-823; [2]): 1310 µM
IC50 (PLA-801; [3]): 1200 µM
IC50 (HepG2; [4]): 430 µM
IC50 (Hela; [5]): 860 µM
IC50 (Bel-7402; [6]): 1310 µM
IC50 (NIH3T3; [7]): 630 µM

2,9-dimethyl-β-carbolinium bromate [Compound 87]
IC50 (Lovo; [1]): 1820 µM
IC50 (BGC-823; [2]): 260 µM
IC50 (PLA-801; [3]): 280 µM
IC50 (HepG2; [4]): 200 µM
IC50 (Hela; [5]): 70 µM
IC50 (Bel-7402; [6]): 370 µM
IC50 (NIH3T3; [7]): 380 µM

COc1ccc2c3ccnc(C)c3n(CCCc3ccccc3)c2c1 [Compound 8, 9-phenylpropyl-7-methoxy-1-methyl-β-carboline]
IC50 (Lovo; [8]): 30 µM
IC50 (BGC-823; [9]): 50 µM
IC50 (PLA-801; PLA-801, MTT, read-out: IC50): 50 µM
IC50 (HepG2; [10]): 40 µM
IC50 (Hela; [11]): 20 µM
IC50 (Bel-7402; [12]): 40 µM
IC50 (NIH3T3; [13]): 20 µM

COC(=O)c1cc2c(cn1)[nH]c1ccccc12 [Compound 9, methyl β-carboline-3-carboxylate]
IC50 (Lovo; Homo sapiens, LoVo): 170 µM
IC50 (BGC-823; Homo sapiens, BGC-823): 290 µM
IC50 (PLA-801): 310 µM
IC50 (HepG2; Homo sapiens, HepG2): 2510 µM
IC50 (Hela; Homo sapiens, HeLa): 100 µM
IC50 (Bel-7402; Homo sapiens, Bel-7402): 300 µM
IC50 (NIH3T3; Mus musculus, NIH3T3): 200 µM

CCOC(=O)c1cc2c(cn1)[nH]c1ccccc12 [Compound 10, ethyl β-carboline-3-carboxylate]
Body weight of the animals, beginning, First time (Lewis lung cancer; [14]): 20.1 g
Inhibition rate, First time (Lewis lung cancer; [14]): 32.92%
Weight of the tumor X ± SD, First time (Lewis lung cancer; [14]): 1.63 ± 0.16 g
Body weight of the animals, end, First time (Lewis lung cancer; Dosage 100 (mg/ml), ip × 10qd, first time): 23.6 g
Body weight of the animals, beginning, First time (Lewis lung cancer; [15]): 20.3 g
Inhibition rate, First time (Lewis lung cancer; [15]): 41.98%
Weight of the tumor X ± SD, First time (Lewis lung cancer; [15]): 1.41 ± 0.21 g
Inhibition rate (%) Lewis cancer (Lewis lung cancer; comparison table 43, in vivo): 41.98%
Body weight of the animals, beginning, First time (S180 sarcoma; Dosage 50 (mg/ml)): 20.0 g
Body weight of the animals, end, First time (S180 sarcoma; Dosage 50 (mg/ml)): 26.4 g
Inhibition rate, First time (S180 sarcoma; Dosage 50 (mg/ml)): 30.92%
Weight of the tumor X ± SD, First time (S180 sarcoma; Dosage 50 (mg/ml)): 1.81 ± 0.20 g
Body weight of the animals, beginning, First time (S180 sarcoma; Dosage 100 (mg/ml)): 20.1 g
Body weight of the animals, end, First time (S180 sarcoma; Dosage 100 (mg/ml)): 25.5 g
Inhibition rate, First time (S180 sarcoma; Dosage 100 (mg/ml)): 40.46%
Weight of the tumor X ± SD, First time (S180 sarcoma; Dosage 100 (mg/ml)): 1.56 ± 0.17 g
Inhibition rate (%) S180 sarcomata (S180 sarcoma; comparison table 43, in vivo): 40.46%
IC50 (Lovo; Homo sapiens, LoVo): 1010 µM
IC50 (BGC-823; Homo sapiens, BGC-823): 1280 µM
IC50 (PLA-801): 280 µM
IC50 (HepG2; Homo sapiens, HepG2): 1250 µM
IC50 (Hela; Homo sapiens, HeLa): 60 µM
IC50 (Bel-7402; Homo sapiens, Bel-7402): 2910 µM
IC50 (NIH3T3; Mus musculus, NIH3T3): 80 µM

CCCCOC(=O)c1cc2c(cn1)[nH]c1ccccc12 [Compound 18, butyl β-carboline-3-carboxylate]
IC50 (Lovo; [8]): 100 µM
IC50 (BGC-823; [9]): 390 µM
IC50 (PLA-801; PLA-801, MTT, read-out: IC50): 680 µM
IC50 (HepG2; [10]): 270 µM
IC50 (Hela; [11]): 290 µM
IC50 (Bel-7402; [12]): 310 µM
IC50 (NIH3T3; [13]): 150 µM

NNC(=O)c1cc2c(cn1)[nH]c1ccccc12 [Compound 20, β-carboline-3-carbohydrazine]
IC50 (Lovo; Lovo, MTT, read-out: IC50): 310 µM
IC50 (BGC-823; BGC823, MTT, read-out: IC50): 740 µM
IC50 (PLA-801; PLA-801, MTT, read-out: IC50): 740 µM
IC50 (HepG2; HepG2, MTT, read-out: IC50): 360 µM
IC50 (Hela; Hela, MTT, read-out: IC50): 400 µM
IC50 (Bel-7402; BeI7402, MTT, read-out: IC50): 1430 µM
IC50 (NIH3T3; NIH3T3, MTT, read-out: IC50): 320 µM
